Measurements taken from the supplement of paper PMC10307832.

Columns and labels:
Assay in all cases: relative viability (nuclei count vs DMSO), 5 days (fraction); higher = more cells survive
[1] = compound: CC1=CC(=CC=C1)NC2=NC(=CS2)C3=CC=NC=C3 + COc1cccc2cc(-c3nc([C@H]4CC[C@H](C(=O)O)CC4)n4ncnc(N)c34)[nH]c12 [OSI-027] (partner 0.5 µM)
Outline: (§1)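 The day after seeding in 1536-well plates, lung cancer cell lines were treated by pin tool with a single drug, or with a fixed anchor-drug dose together with five library-drug doses (not always all listed) in √10 steps. After 5 days, a combined fix-and-stain solution (final 0.05% Triton X-100, 1% formaldehyde, 1 ug/ml Hoechst) was added. Nuclei counted on 4× images gave relative viability as treated counts over vehicle counts, reported as the median of duplicate plates.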

[2] = compound: CC1=CC(=CC=C1)NC2=NC(=CS2)C3=CC=NC=C3 + CS(=O)(=O)N1CCN(Cc2cc3nc(-c4cccc5[nH]ncc45)nc(N4CCOCC4)c3s2)CC1 [Pictilisib] (partner 1 µM)
Outline: as §1

[3] = compound: CC1=CC(=CC=C1)NC2=NC(=CS2)C3=CC=NC=C3 + C[C@]1(O)C[C@@H](c2nc(-c3ccc4ccc(-c5ccccc5)nc4c3)c3c(N)nccn32)C1 [Linsitinib] (partner 1 µM)
Outline: as §1

[4] = compound: CC1=CC(=CC=C1)NC2=NC(=CS2)C3=CC=NC=C3 + Cc1cc(Nc2cc(N3CCN(C)CC3)nc(Sc3ccc(NC(=O)C4CC4)cc3)n2)n[nH]1 [Tozasertib] (partner 0.1 µM)
Outline: as §1

Row | Cell Line | relative viability ([1]; first compound 0.08 µM) | relative viability ([1]; first compound 0.253 µM) | relative viability ([1]; first compound 0.8 µM) | relative viability ([1]; first compound 2.53 µM) | relative viability ([1]; first compound 8 µM) | relative viability ([2]; first compound 0.08 µM) | relative viability ([2]; first compound 0.253 µM) | relative viability ([2]; first compound 0.8 µM) | relative viability ([2]; first compound 2.53 µM) | relative viability ([2]; first compound 8 µM) | relative viability ([3]; first compound 0.08 µM) | relative viability ([3]; first compound 0.253 µM) | relative viability ([3]; first compound 0.8 µM) | relative viability ([3]; first compound 2.53 µM) | relative viability ([3]; first compound 8 µM) | relative viability ([4]; first compound 0.08 µM) | relative viability ([4]; first compound 0.253 µM) | relative viability ([4]; first compound 0.8 µM) | relative viability ([4]; first compound 2.53 µM) | relative viability ([4]; first compound 8 µM)
1 | NCI-H2085 | 0.7 | 0.614 | 0.598 | 0.613 | 0.522 | 0.5 | 0.434 | 0.453 | 0.426 | 0.447 | 0.901 | 0.952 | 0.911 | 0.838 | 0.578 | 0.748 | 0.744 | 0.652 | 0.467 | 0.421
2 | NCI-H2087 | 0.499 | 0.543 | 0.554 | 0.673 | 0.639 | 0.616 | 0.812 | 0.851 | 0.885 | 0.77 | 0.934 | 0.862 | 0.996 | 0.888 | 0.798 | 0.197 | 0.229 | 0.245 | 0.19 | 0.216
3 | NCI-H2126 | 0.608 | 0.582 | 0.674 | 0.631 | 0.651 | 0.416 | 0.443 | 0.449 | 0.425 | 0.436 | 0.671 | 0.694 | 0.71 | 0.726 | 0.657 | 0.77 | 0.756 | 0.798 | 0.686 | 0.737
4 | NCI-H2228 | 0.375 | 0.463 | 0.517 | 0.472 | 0.398 | 0.413 | 0.431 | 0.281 | 0.453 | 0.359 | 0.569 | 0.629 | 0.408 | 0.586 | 0.705 | 0.24 | 0.198 | 0.175 | 0.162 | 0.157
5 | NCI-H2347 | 0.362 | 0.328 | – | 0.419 | 0.411 | 0.583 | 0.685 | 0.434 | 0.665 | 0.578 | 0.751 | 0.802 | 0.688 | 0.948 | 0.93 | 0.51 | 0.605 | – | 0.489 | 0.489
6 | NCI-H2405 | 0.564 | 0.636 | 0.531 | 0.702 | 0.671 | 0.315 | 0.433 | 0.332 | 0.523 | 0.342 | 0.777 | 0.927 | 0.799 | 0.999 | 0.926 | 0.65 | 0.727 | 0.541 | 0.691 | 0.602
7 | NCI-H3122 | 0.824 | 1.03 | 1.12 | 1.09 | 0.969 | 0.648 | 0.632 | 0.667 | 0.727 | 0.83 | 0.991 | 0.938 | 0.907 | 1 | 0.964 | 0.386 | 0.455 | 0.47 | 0.384 | 0.457
8 | PC-3 [JPC-3] | 0.651 | 0.659 | 0.599 | 0.607 | 0.594 | 0.575 | 0.609 | 0.617 | 0.629 | 0.719 | 0.888 | 0.878 | 0.772 | 0.903 | 0.91 | 0.837 | 0.803 | 0.789 | 0.771 | 0.61
9 | PC-14 | 0.712 | 0.833 | 0.795 | 0.826 | 0.702 | 0.719 | 0.666 | 0.634 | 0.752 | 0.598 | 0.858 | 0.944 | 0.86 | 1.01 | 0.844 | 0.527 | 0.58 | 0.497 | 0.526 | 0.555
10 | RERF-LC-KJ | 0.512 | 0.572 | 0.569 | 0.415 | 0.37 | 0.509 | 0.49 | 0.541 | 0.472 | 0.497 | 0.78 | 0.872 | 0.684 | 0.683 | 0.563 | 0.447 | 0.476 | 0.438 | 0.382 | 0.259
11 | SK-LU-1 | 0.32 | 0.374 | – | 0.348 | 0.273 | 0.527 | 0.575 | – | 0.586 | 0.626 | 1.03 | 1.1 | 0.815 | 1.17 | 1 | 0.301 | 0.293 | – | 0.32 | 0.302
12 | SK-MES-1 | 0.517 | 0.484 | 0.549 | 0.714 | 0.511 | 0.275 | 0.276 | 0.341 | 0.358 | 0.346 | 0.878 | 0.933 | 0.81 | 1.04 | 0.874 | 0.708 | 0.679 | 0.722 | 0.737 | 0.718
13 | SW 1573 | 0.569 | 0.593 | 0.723 | 0.561 | 0.536 | 0.473 | 0.454 | 0.521 | 0.57 | 0.488 | 0.845 | 0.65 | 0.705 | 0.901 | 0.779 | 0.184 | 0.168 | 0.279 | 0.154 | 0.185
